Columns and labels:
M. elsdenii Bcd = biological target: T1, M. elsdenii Bcd (Megasphaera elsdenii, UniProt Q06319); conditions: inhibition of M. elsdenii Bcd; cited from earlier work
T1 sequence (Q06319 1-383): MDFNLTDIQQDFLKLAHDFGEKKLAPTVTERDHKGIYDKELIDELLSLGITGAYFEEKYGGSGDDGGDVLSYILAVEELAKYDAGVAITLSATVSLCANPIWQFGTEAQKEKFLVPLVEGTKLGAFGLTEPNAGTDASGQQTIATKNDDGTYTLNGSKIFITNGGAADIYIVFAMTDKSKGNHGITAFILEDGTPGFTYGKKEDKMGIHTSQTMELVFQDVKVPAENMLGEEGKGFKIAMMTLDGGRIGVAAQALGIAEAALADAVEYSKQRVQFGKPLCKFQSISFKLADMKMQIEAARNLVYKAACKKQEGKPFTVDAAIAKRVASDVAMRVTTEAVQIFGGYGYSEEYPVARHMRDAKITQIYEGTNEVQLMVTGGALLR

Bcd = conditions: read-out: Km of Bcd for butyryl-CoA; unit inferred; cited from earlier work
[1] = test system: C. acetobutylicum P262 Bcd; conditions: read-out: Km of the C. acetobutylicum P262 Bcd for butyryl-CoA; cited from earlier work
[2] = biological target: crotonase (Crt) from C. acetobutylicum (Clostridium acetobutylicum, UniProt P52046); conditions: crotonyl-CoA as substrate of C. acetobutylicum crotonase; cited from earlier work
[3] = in-vitro activity assay of Hbd homologues in lysate, NADH consumption at 340 nm; format: biochemical; conditions: lysate of GEVO768 (E. coli W3110Z1) transformant, 0.1 mM acetoacetyl CoA, 0.2 mM NADH, pH 7.0
Text: (§1) In particular, homologues of the pathway enzymes hydroxyl butyryl CoA dehydrogenase (Hbd), crotonase (Crt) and thiolase (Th1) were expressed and compared by in-vitro activity assay. The hydroxyl butyryl CoA dehydrogenase homologues tested were pGV1037 (Hbd from Clostridium acetobutylicum), pGV1041 (Hbd from Butyrivibrio fibrisolvens), pGV1050 (Hbd from Clostridium beijerinkii), and pGV1154 (Hbd from Clostridium acetobutylicum, codon optimized gene sequence). The crotonase homologues tested were pGV1040 (Crt from Butyrivibrio fibrisolvens), pGV1049 (Crt from Clostridium beijerinkii), pGV1094 (Crt from Clostridium acetobutylicum) and pGV1189 (Crt from Clostridium acetobutylicum, codon optimized gene sequence). The thiolase homologues tested were pGV1035 (Th1 from Clostridium acetobutylicum), pGV1039 (Th1 from Butyrivibrio fibrisolvens), and pGV1188 (Th1 from Clostridium acetobutylicum, codon optimized gene sequence). The genes were expressed and assayed as per the following outlined protocol
(§2) GEVO768 (E. coli W3110Z1) was transformed with each of the plasmids and the transformants were plated on LB media with 100 μg/mL of chloramphenicol. The plates were incubated at 37° C. for 14-16 hours. Single colonies of the clones were used to inoculate 3 mL of LB media with 100 μg/mL of chloramphenicol. The cultures were incubated overnight at 37° C. at 250 rpm. The overnight cultures were used to inoculate 50 mL of EZ-rich medium in shake flasks with 100 μg/mL of chloramphenicol. The cultures were incubated at 37° C. at 250 rpm. At mid-exponential growth phase (OD600 0.6-0.8) the cultures were induced with 1 mM IPTG. […]
(§3) To test the activity of Hbd, 10 μL of the lysate was added to 190 μL of 50 mM MOPS pH 7.0 buffer containing 0.1 mM acetoacetyl CoA, and 0.2 mM NADH. The activity of Hbd was measured by monitoring the consumption of NADH at 340 nm. […] Enzyme activity was measured by monitoring the consumption of crotonyl CoA at 263 nm. […] Enzyme activity was measured by monitoring the consumption of acetoacetyl CoA at 303 nm. […]

[4] = in-vitro activity assay of Crt homologues in lysate, crotonyl CoA consumption at 263 nm; format: biochemical; conditions: lysate of GEVO768 (E. coli W3110Z1) transformant, 30 μM crotonyl CoA, pH 7.6
Text: as §1, §2, §3

Molecule: CC(=O)CC(=O)O [acetoacetate]
- Ki (M. elsdenii Bcd): 100 nM

Molecule: CCCC(=O)SCCNC(=O)CCNC(=O)[C@H](O)C(C)(C)COP(=O)(O)OP(=O)(O)OC[C@H]1O[C@@H](n2cnc3c(N)ncnc32)[C@H](O)[C@@H]1OP(=O)(O)O [butyryl-CoA]
- Km (Bcd): 5 µM
- Km [1]: ~6 µM

Molecule: C/C=C/C(=O)SCCNC(=O)CCNC(=O)[C@H](O)C(C)(C)COP(=O)(O)OP(=O)(O)OC[C@H]1O[C@@H](n2cnc3c(N)ncnc32)[C@H](O)[C@@H]1OP(=O)(O)O [crotonyl-CoA]
- Km [2]: 30 µM
- Vmax [2]: 6.5×10^6 moles per min per mole

Molecule: pGV1037: plasmid-expressed Hbd from Clostridium acetobutylicum
- Specific activity (Hbd) [3]: 3.51 nmol/min/μg total cell protein

Molecule: pGV1154: plasmid-expressed Hbd from Clostridium acetobutylicum, codon optimized gene sequence
- Specific activity (Hbd) [3]: 11.69 nmol/min/μg total cell protein
- Specific activity (Hbd) ([3]; listed as Hbd): 11.6 nmol/min/μg total cell protein

B1: GV1189: plasmid-expressed Crt from Clostridium acetobutylicum, codon optimized gene sequence (protein, UniProt P52046 1-261, looked up)
Short-chain-enoyl-CoA …: MELNNVILEKEGKVAVVTINRPKALNALNSDTLKEMDYVIGEIENDSEVLAVILTGAGEKSFVAGADISEMKEMNTIEGRKFGILGNKVFRRLELLEKPVIAAVNGFALGGGCEIAMSCDIRIASSNARFGQPEVGLGITPGFGGTQRLSRLVGMGMAKQLIFTAQNIKADEALRIGLVNKVVEPSELMNTAKEIANKIVSNAPVAVKLSKQAINRGMQCDIDTALAFESEAFGECFSTEDQKDAMTAFIEKRKIEGFKNR
- Specific activity (Crt) [4]: 916.99 nmol/min/μg total cell protein
- Specific activity (Crt) ([4]; listed as crotonase): 1178 nmol/min/μg total cell protein

B2: pGV1094: plasmid-expressed Crt from Clostridium acetobutylicum (protein, UniProt P52046 1-261, looked up)
Short-chain-enoyl-CoA …: B1 Short-chain-enoyl-CoA …
- Specific activity (Crt) [4]: 83.39 nmol/min/μg total cell protein

— patent publication US20090155869A1 (Gevo, Inc., priority 2006, published 2009)
